Series [1] has as its system liver cancer cells (HepG2). The series can be described thus: growth of liver cancer cells (HepG2) over time as a function of xanthohumol dosage (FIG. 5). The note with it: HepG2, increasing concentrations of xanthohumol, pure form (>98%). Format: cell-based.
The next series concerns hepatic stellate cells. The series can be described thus: transformation of quiescent hepatic stellate cells to activated hepatic stellate cells (FIGS. 6 and 7). The class given is cell-based. The note with it: hepatic stellate cell activation, increasing dosage of xanthohumol. An excerpt:
FIGS. 6 and 7 illustrate the effect of addition of xanthohumol for the prevention of transformation of the body's own physiologically “quiescent” (non-activated) hepatic stellate cells to activated hepatic stellate cells.
FIGS. 6 and 7 illustrate the effect of addition of xanthohumol for the prevention of transformation of the body's own, physiologically “quiescent” (non-activated) hepatic stellate cells to activated hepatic stellate cells, which are responsible for scarring of the liver in cirrhosis of the liver.

The subject of series [2] is activated hepatic stellate cells. The series can be described thus: destruction (LDH) of activated hepatic stellate cells (FIG. 8). The class given is cell-based. The settings on record: increasing dosage of xanthohumol.
The next series relates to liver cells. The series can be described thus: in vitro tests of fat accumulation (steatosis) in liver cells. Format: cell-based. An excerpt:
Another effective method of preventing NASH 102 can be performed by inhibiting inflammation 108 of the liver even when eating a high fat diet. Another effective method of preventing NASH 102 can be performed by inhibiting fibrosis 110 of the liver even when eating a high fat diet. […] Inhibition of fat accumulation, inflammation, and/or fibrosis can also be an effective treatment for slowing down or preventing further progression of the liver disease state (including NASH). […] Inhibition of the reception of fatty acids into liver cells was determined in vitro tests and in vivo experiments.

A further series has as its system male C57BL/6N mice. Nature of the series: high fat diet (NASH-inducing diet) feeding study in mice, 20 weeks (FIGS. 13-15). Format: in vivo. The note with it: 500 mg/kgBW. The source says:
(§1) In vivo studies correlate with the in vitro studies. FIGS. 13-18 show comparative graphs of in vivo experimental data showing the effectiveness of xanthohumol when eating a high fat diet. The experiments involved using male C57BL/6N mice purchased from Charles River Laboratories (Sulzfeld, Germany). After two weeks of acclimatization, the mice were fed either standard diet (CTR), standard diet with xanthohumol (XN), high fat diet without providing xanthohumol (HFD), or high fat diet and xanthohumol (HFD+XN). High fat diet in the experiments included a NASH-inducing diet which includes sucrose, cholesterol, and fats rich in saturated fatty acids. In detail, the high fat diet included pork lard (15%), beef tallow (15%), palmitic acid (4%), stearic acid (4%), cholesterol (0.2%), and sucrose (30%). The feeding lasted for 20 weeks. Each experimental group had six mice. The XN and HFD+XN mice were provided with 500 mg of xanthohumol per kg of body weight (kgBW).

For series [3], the system named is proinflammatory cytokine tumor necrosis factor (TNF) mRNA. The series can be described thus: hepatic TNF mRNA expression in high fat diet mouse study (FIG. 16). Format: in vivo. The settings on record: 500 mg/kgBW, 20 weeks.
From the text: as §1
The TNF measurement is an indicator of inflammation in the liver. The mice that ate high fat diet (HFD) had the highest level of TNF mRNA. […] The reduction was by more than 50% of the HFD mice, such that the TNF mRNA of the HFD+XN mice had nearly the same TNF mRNA level as the control mice (CTR). […]

Series [4] relates to Collagen Type I (Coll-I) mRNA. The series can be described thus: hepatic Coll-I mRNA expression in high fat diet mouse study (FIG. 17). The settings on record: 500 mg/kgBW, 20 weeks. Format: in vivo.
From the text: as §1
(§2) FIGS. 17 and 18 show charts of the detected measurement of hepatic mRNA expressions of Collagen Type I (Coll-I) and profibrogenic factor tissue inhibitor of metalloproteinases 1 (TIMP-1), respectively, of the mice from the experiments (*: p<0.05; normalized so that CTR is set to 1). These methodologies are established markers detecting hepatic fibrosis (e.g., fibrosis of the liver). […]

Series [5] concerns tissue inhibitor of metalloproteinases 1 (TIMP-1) mRNA. The series can be described thus: hepatic TIMP-1 mRNA expression in high fat diet mouse study (FIG. 18). Format: in vivo. The note with it: 500 mg/kgBW, 20 weeks.
From the text: as §1, §2

The test system of series [6] is liver cells infected with hepatitis C (HUH7 HCV replicon). Nature of the series: efficacy on liver cells infected with hepatitis C vs non-infected liver cells (FIGS. 2 and 3). Format: cell-based. An excerpt:
Thus, use of the invention allows a targeted therapy for reduction or elimination of liver cells infected with the virus.

Setting [7] is: standard diet with xanthohumol (XN).
Where [8] appears, read: standard diet with xanthohumol (XN), mice.

One compound from patent publication US20140066519A1, “USE OF XANTHOHUMOL AND/OR ISOXANTHOHUMOL AS AN AGENT FOR PREVENTING AND/OR COMBATING LIVER DISEASES” (FLAXAN GMBH & CO. KG, priority 2006, published 2014) can be followed below.

Regarding `COc1cc(O)c(CC=C(C)C)c(O)c1C(=O)/C=C/c1ccc(O)cc1` [xanthohumol], in [1], the “growth of the cancer cells” value is “progressively inhibited”. Further, the “formation of scar tissue” value with hepatic stellate cells was “increasingly suppressed”. The “destruction (LDH) of activated hepatic stellate cells” value in series [2] is “increased effect of destruction”. Further, the “viability of the liver cells” value with liver cells (in vitro) is “does not affect the viability”. For the same compound, the “reception of fatty acids into liver cells (formation of steatosis)” value in the series on liver cells (in vitro tests and in vivo experiments) was “directly inhibits”. Moreover, in the series on liver cells (in vitro, increased amount of xanthohumol), the “fatty degeneration of liver cells” value is recorded as “lessens fatty degeneration”. For the same compound, in the series on male C57BL/6N mice (HFD+XN), the “reduction of ALT level compared to HFD mice” value was roughly 50% and the “reduction of hepatic TG (mg(TG)/mg(protein)) compared to high fat diet without xanthohumol” value is recorded as “more than 50%”. Also, in the series on male C57BL/6N mice (setting [7]), the ALT level result is recorded as “lowest detected levels” and the “hepatic TG (mg(TG)/mg(protein)) level” value was “lowest detected levels”. In addition, in series [3] (HFD+XN), the “reduction of TNF mRNA compared to HFD mice” value is recorded as “more than 50%”. Moreover, in [3] (setting [8]), the “TNF mRNA level” value is recorded as “lowest detected levels”. The “hepatic Coll-I mRNA compared to HFD mice” value in series [4] (HFD+XN) was “substantial reductions”. In addition, in [4] (setting [8]), the “hepatic Coll-I mRNA level” value is “about the same as the control mice”. The “hepatic TIMP-1 mRNA compared to HFD mice” value in series [5] (HFD+XN) is given as “substantial reductions”. Besides, the “hepatic TIMP-1 mRNA level” value in series [5] (setting [8]) is recorded as “about the same as the control mice”. In addition, the “destruction of liver cells affected by the virus vs healthy liver cells” value in [6] (healthy liver cells left undamaged) was “selective destruction”. In addition, in series [6] (hepatitis B and C viral damage to the liver), the “replication of the virus” value is on record as “inhibit replication of the virus”.
